Experimental data published in ChEMBL document CHEMBL4414547, “Discovery of a novel 2,5-dihydroxycinnamic acid-based 5-lipoxygenase inhibitor that induces apoptosis and may impair autophagic flux in RCC4 renal cancer cells” (Eur J Med Chem, 2019).
Each block holds one compound with its values, some of them ahead of it. Activity calls are given as the source filed them. The calls are words filed in the database; no cut-off is given here.

Columns and labels:
[1] = molecular target: T1, Polyunsaturated fatty acid 5-lipoxygenase (Homo sapiens) (UniProt P09917); assay: Inhibition of 5-LO in human PMNL cells assessed as reduction in leukotriene formation at 1 uM preincubated for 5 mins followed by thapsigargin stimulation measured after 15 mins by RP-HPLC analysis relative to control; format: cell-based
T1 sequence (whole entry): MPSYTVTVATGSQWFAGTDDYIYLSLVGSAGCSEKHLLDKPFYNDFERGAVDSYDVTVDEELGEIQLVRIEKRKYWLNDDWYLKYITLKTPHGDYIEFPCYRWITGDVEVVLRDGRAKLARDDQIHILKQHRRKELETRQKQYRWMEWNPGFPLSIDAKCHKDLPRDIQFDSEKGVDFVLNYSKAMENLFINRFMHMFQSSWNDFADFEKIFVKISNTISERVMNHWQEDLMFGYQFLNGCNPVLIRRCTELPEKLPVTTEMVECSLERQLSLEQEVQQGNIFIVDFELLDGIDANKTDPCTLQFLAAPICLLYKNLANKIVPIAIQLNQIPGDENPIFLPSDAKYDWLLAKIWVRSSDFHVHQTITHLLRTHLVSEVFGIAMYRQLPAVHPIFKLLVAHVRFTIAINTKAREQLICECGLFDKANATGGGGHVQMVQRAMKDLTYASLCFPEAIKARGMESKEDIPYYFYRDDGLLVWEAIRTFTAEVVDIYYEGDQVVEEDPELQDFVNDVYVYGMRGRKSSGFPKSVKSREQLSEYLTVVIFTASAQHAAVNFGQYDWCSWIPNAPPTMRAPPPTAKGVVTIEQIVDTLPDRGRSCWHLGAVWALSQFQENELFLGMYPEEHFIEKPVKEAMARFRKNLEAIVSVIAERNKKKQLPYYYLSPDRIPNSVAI

[2] = molecular target: T1, Polyunsaturated fatty acid 5-lipoxygenase (Homo sapiens); assay: (§1) Inhibition of human 5-LO transfected in HEK293 cells coexpressing FLAP assessed as reduction in leukotriene formation at 1 uM using arachidonic acid as substrate preincubated for 5 mins followed by calcium ionophore A23187/arachidonic acid addition and measured after 15 mins by RP-HPLC analysis; format: cell-based
[3] = molecular target: T2, Polyunsaturated fatty acid 5-lipoxygenase (Homo sapiens, UniProt P09917); assay: Inhibition of 5-LO in human PMNL cells assessed as reduction in leukotriene formation preincubated for 5 mins followed by thapsigargin stimulation measured after 15 mins by RP-HPLC analysis; format: cell-based
T2 sequence (P09917 whole entry): T1 sequence (whole entry)

[4] = molecular target: T1, Polyunsaturated fatty acid 5-lipoxygenase (Homo sapiens); assay: as §1, with “as” for “as reduction in”, “analysis relative to control” for “analysis”; format: cell-based; design: scale not given: the % may be the effect or the level left
[5] = test system: 786-0; assay: Cytotoxicity against VHL-deficient human 786-0 cells assessed as reduction in cell viability incubated for 4 days by XTT assay; format: functional, cell-based; conditions: 786-0, 96 h
[6] = Cytotoxicity against VHL-positive human RCC10 cells assessed as reduction in cell viability incubated for 4 days by XTT assay; format: functional, cell-based; conditions: 96 h
[7] = Antioxidant activity assessed as DPPH radical scavenging activity incubated for 30 mins under dark condition; format: functional
[8] = Cytotoxicity against VHL-deficient human RCC10 cells assessed as reduction in cell viability incubated for 4 days by XTT assay; format: functional, cell-based; conditions: 96 h
[9] = test system: RCC4; assay: Cytotoxicity against VHL-deficient human RCC4 cells assessed as reduction in cell viability incubated for 4 days by XTT assay; format: functional, cell-based; conditions: RCC4, 96 h
[10] = test system: 786-0; assay: Cytotoxicity against VHL-positive human 786-0 cells assessed as reduction in cell viability incubated for 4 days by XTT assay; format: functional, cell-based; conditions: 786-0, 96 h
[11] = test system: RCC4/VHL; assay: Cytotoxicity against VHL-positive human RCC4/VHL cells assessed as reduction in cell viability incubated for 4 days by XTT assay; format: functional, cell-based; conditions: 96 h
[12] = molecular target: T1, Polyunsaturated fatty acid 5-lipoxygenase (Homo sapiens); assay: Potency index, ratio of Zileuton IC50 to compound IC50 for inhibition of 5-LO in human PMNL cells assessed as reduction in leukotriene formation preincubated for 5 mins followed by thapsigargin stimulation measured after 15 mins by RP-HPLC analysis; format: cell-based
[13] = molecular target: T1, Polyunsaturated fatty acid 5-lipoxygenase (Homo sapiens); assay: Potency index, ratio of CAPE IC50 to compound IC50 for inhibition of 5-LO in human PMNL cells assessed as reduction in leukotriene formation preincubated for 5 mins followed by thapsigargin stimulation measured after 15 mins by RP-HPLC analysis; format: cell-based

- inhibition [1]: > 50%
- inhibition [2]: Active
- IC50 [3]: 0.89 µM
SMILES: O=C(/C=C/c1cccc(O)c1O)OCCc1ccccc1

- Activity [4]: 100%
SMILES: O=C(/C=C/c1cc(O)cc(O)c1)OCCc1ccccc1

- inhibition [2]: Active
SMILES: O=C(/C=C/c1cccc(O)c1O)OCCCc1ccccc1

- inhibition [2]: inactive
- IC50 [7]: 17.3 µM
SMILES: O=C(OCCc1ccccc1)c1cc(O)ccc1O
- IC50 [5]: > 100 µM
- IC50 [6]: 3.9 µM
- IC50 [8]: 14.8 µM
- IC50 [9]: 42.8 µM
- IC50 [10]: > 100 µM
- IC50 [11]: > 100 µM

- inhibition [1]: Active
- inhibition [2]: Active
- IC50 [7]: > 100 µM
SMILES: CC(c1cc2ccccc2s1)N(O)C(N)=O (centres undefined) [ZILEUTON]

- inhibition [1]: > 50%
- inhibition [2]: Active
- IC50 [7]: 15 µM
- IC50 [3]: 0.53 µM
- Ratio IC50 [12]: 4
- Ratio IC50 [13]: 1.8
SMILES: O=C(/C=C/c1cc(O)ccc1O)CCc1ccccc1
- IC50 [5]: 20.5 µM
- IC50 [6]: 5.1 µM
- IC50 [8]: 9.2 µM
- IC50 [9]: 9.9 µM
- IC50 [10]: 19 µM
- IC50 [11]: 12.3 µM

- inhibition [2]: Active
SMILES: O=C(/C=C/c1cc(O)ccc1O)OCCCc1ccccc1
